Measured values reported in patent US5554644A, “Tachykinin (NK2) antagonists” (Warner-Lambert Company, priority 1994, dated 1996).

Assays:
NK2 receptor = target: T1, NK2 receptor (Mesocricetus auratus, UniProt P51144); test: NK2 receptor binding: binding of [^125 I]-iodohistidyl neurokinin A (0.1 nM) to hamster urinary bladder membranes
T1 construct: to hamster urinary bladder membranes; from tissue; host or cells: hamster urinary bladder membranes
T1 sequence (P51144 1-384): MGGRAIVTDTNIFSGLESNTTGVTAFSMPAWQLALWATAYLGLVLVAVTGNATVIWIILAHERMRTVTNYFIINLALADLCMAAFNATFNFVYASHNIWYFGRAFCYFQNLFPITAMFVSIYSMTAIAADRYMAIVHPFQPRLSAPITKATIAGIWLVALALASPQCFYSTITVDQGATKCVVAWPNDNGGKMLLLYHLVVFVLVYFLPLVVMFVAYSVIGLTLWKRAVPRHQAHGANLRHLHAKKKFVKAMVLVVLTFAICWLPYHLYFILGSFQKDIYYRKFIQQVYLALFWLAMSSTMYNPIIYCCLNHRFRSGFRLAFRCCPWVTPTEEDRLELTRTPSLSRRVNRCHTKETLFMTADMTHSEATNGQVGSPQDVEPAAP
Experimental: Some of the compounds of the invention were evaluated in tachykinin binding assays.
For the NK2 receptor-measurement of the binding of [^125 I]-iodohistidyl neurokinin A (0.1 nM) to hamster urinary bladder membranes. See Buck and Shatzer, Life Sci., 42:2701 (1988).

NK1 receptor = conditions: cited from earlier work; for antagonists at the NK1 receptor: nonpeptide antagonists
NK2 receptors = conditions: cited from earlier work

Compound	IC50 (NK2 receptor) [nM]	also measured
COc1cccc(COC(=O)NC(Cc2c[nH]c3ccccc23)C(=O)NC(C)(Cc2ccccc2)C(O)CCCO)c1OC (single isomer, unassigned) [Compound XXI, Carbamic acid, [2-[[2,5-dihydroxy-1-methyl-1-(phenylmethyl)pentyl]amino]-1-(1H-indol-3-ylmethyl)-2-oxoethyl]-, (2,3-dimethoxyphenyl)methyl ester]	330	
COc1ccccc1CN[C@H]1C2CCN(CC2)[C@H]1C(c1ccccc1)c1ccccc1 [CP-96,345]		antagonists at the NK1 receptor (NK1 receptor): antagonists at the NK1 receptor
COc1cccc(COC(=O)N[C@@H](Cc2c[nH]c3ccccc23)C(=O)N[C@@](C)(Cc2ccccc2)C(=O)N(C)CCO)c1OC [Compound VII, L-Phenylalaninamide, N-[[(2,3-dimethoxyphenyl)methoxy]-carbonyl]-L-tryptophyl-N-(2-hydroxyethyl)-N,α-dimethyl]	> 10000	
COc1ccccc1CC(=N)N1C[C@@H]2C(=O)CCC(c3ccccc3)(c3ccccc3)[C@@H]2C1 [RP 67580]		antagonists at the NK1 receptor (NK1 receptor): antagonists at the NK1 receptor
CC(=O)NC1(c2ccccc2)CCN(CC[C@H](CN(C)C(=O)c2ccccc2)c2ccc(Cl)c(Cl)c2)CC1 [SR 48969]		affinity and selectivity for NK2 receptors (NK2 receptors): high affinity and selectivity for NK2 receptors
substance-P		affinity for NK1 receptors (NK1 receptor): highest affinity for NK1 receptors

Further lines, with some results ahead:

IC50 (NK2 receptor) [nM]	Compound	also measured
360	COc1cccc(COC(=O)NC(Cc2c[nH]c3ccccc23)C(=O)NC(C)(Cc2ccccc2)C(O)CCCO)c1OC (single isomer, unassigned) [Compound XX, Carbamic acid, [2-[[2,5-dihydroxy-1-methyl-1-(phenylmethyl)pentyl]amino]-1-(1H-indol-3-ylmethyl)-2-oxoethyl]-, (2,3-dimethoxyphenyl)methyl ester]	
150	COc1cccc(COC(=O)N[C@@H](Cc2c[nH]c3ccccc23)C(=O)N[C@@](C)(Cc2ccccc2)C(=O)OCCO)c1OC [Compound IV, L-Phenylalanine, N-[N-[[(2,3-dimethoxyphenyl)methoxy]carbonyl]L-tryptophyl]-α-methyl- , 2-hydroxyethyl ester]	
250	COc1cccc(COC(=O)N[C@@H](Cc2c[nH]c3ccccc23)C(=O)N[C@](C)(COCCO)Cc2ccccc2)c1OC [Compound XII, Carbamic acid, [2-[[1-[(2-hydroxyethoxy)methyl]-1-methyl-2-phenylethyl]amino]-1-(1H-indol-3-ylmethyl)-2-oxoethyl]-, (2,3-dimethoxyphenyl)methyl ester, [S-(R*, R*)]-.]	
22	COc1cccc(COC(=O)N[C@@H](Cc2c[nH]c3ccccc23)C(=O)N[C@@](C)(Cc2ccccc2)C(=O)CCCO)c1OC [XXVI, Carbamic acid, [2-[[5-hydroxy-1-methyl-2-oxo-1-(phenylmethyl)pentyl]amino]-1-(1H-indol-3-ylmethyl)-2-oxoethyl]-, (2,3-dimethoxyphenyl)methyl ester]	
